# Data: patent publication US20150174158A1, “[…] NITRIC OXIDE FOR TREATING RESPIRATORY DISEASES” (Advanced Inhalation Therapies (AIT) Ltd., priority 2012, published 2015)
# Like-named read-outs stand apart in the source and are kept apart here.
# Tests used:
# [1] = test system: MRSA; conditions: 200 ppm gNO; saline; cited from earlier work
# [2] = test system: broad range of microbes; conditions: gNO at 160-200 ppm; in vitro, ex vivo and in animal models; cited from earlier work
# [3] = test system: Klebsiella sp. #1; conditions: 200 ppm gNO; saline; cited from earlier work
# [4] = cited from earlier work; for mortality: 6 h/day, groups of 10 rats
# [5] = test system: five planktonic species of methicillin resistant S. aureous (MRSA); conditions: 1,600 ppm hours of gNO; cited from earlier work
# [6] = test system: S. aureus (ATCC); conditions: 200 ppm gNO; saline; cited from earlier work
# [7] = Phase I open label safety study of intermittent 160 ppm gNO inhalation: adverse events, vital signs, oxygenation, NO2; type: in vivo, human
# Excerpt: 10 healthy adult volunteer subjects (5 males, 5 females), aged 20 to 62 years, were enrolled in the study after screening their medical history, a physical examination, pulmonary function tests and blood values. Exclusion criteria included individuals less than 19 years of age, pregnant females and unwilling to practice birth control during the study, diagnosed with pulmonary disease, epistaxis, hemoptysis, methemoglobinemia, organ transplant recipient or receiving antibiotic therapy.
# After obtaining informed consent, treatment was initiated within 5 days of enrollment. Subjects were housed in a hospital ward and received 160 ppm gNO for 30 minutes every four hours (Q4h), five times a day, for five consecutive days by inhalation. Subjects returned for follow-up evaluations 3, 7 and 21 days after the final gNO administration. Subject safety was determined by monitoring vital signs, methemoglobin levels, lung function, blood chemistry, hematology, prothrombin time, inflammatory cytokine/chemokines levels and endothelial activation. These parameters were compared to baseline and at various time-points during and after gNO administration.
# Subjects were administered gNO through a modified disposable mouthpiece to maximize mixing. Inspiration was spontaneously initiated by the subject from a conventional intermittent positive pressure breathing respirator (Mark-7, Carefusion, USA) in fixed flow mode delivering 48 liters per minute (LPM). Flows of gas were verified with a calibrated mass flow meter (TSI, USA). Gaseous nitric oxide (gNO, obtained at INOmax, Ikaria, USA) at a concentration of 800 ppm delivered at a flow of 12 LPM was titrated into a distal delivery port on the mouth piece connected to the respirator during inspiratory phase only (pressure switch). The Mark 7 respirator was supplied by an air/oxygen blender (Bird Sentry, Carefusion, USA) set to deliver 26% oxygen.
# The levels of gNO, NO2, O2 and methemoglobin were monitored during the administration of gNO. […] Inspiratory NO, NO2 and O2 levels were continuously monitored by sampling from the mouthpiece sample port located about 6 millimeters from the mouth of the subject with an AeroNOx (Pulmonox, AB, Canada) NO, NO2 and O2 electrochemical analyzer. Delivery safety was determined by the number of occasions that NO2 exceeded 5 ppm, gNO exceeding 10% variation and O2 dropping below 20% during gNO administration. […]
# General medical examinations were performed by a pulmonary physician on screening and on days 8, 12 and 26 to obtain oxygenation and vital sign measurements. […] Oxygenation was measured with a pulse oximeter (Rad 57, Masimo Corporation, USA) which was used according to manufacturer's guidelines to measure functional oxygen saturation of arterial hemoglobin (SpO2) and heart rate. These parameters were measured continuously during every gNO administration and for 3.5 hours after the first treatment of the day. Cardiovascular status was determined by monitoring heart rate, blood pressure, respiratory rate and temperature. Values were recorded prior to the start of each gNO administration, following a 5 minute rest. During treatments, vital signs (except temperature) were also performed 15 minutes after the start of the treatment and at the end of gNO administration and recorded. After the first treatment each day, vital signs were recorded at every 30 minutes until the start of the second gNO administration of the day.
# [8] = test system: S. maltophilia; conditions: 200 ppm gNO; saline; cited from earlier work
# [9] = test system: methemoglobin (MetHb); conditions: healthy humans, cited from earlier work
# [10] = test system: Enterobacter sp.; conditions: 200 ppm gNO; saline; cited from earlier work
# [11] = test system: highly pathogenic Avian Influenza H7N3; conditions: cited from earlier work
compound,measurement,setting,value
"[N]=O [gNO, nitric oxide]",LD100,[1],5 h
same,Latent Period,[1],3 h
same,−2.5 Log10,[1],4.2 hours
same,antimicrobial effects,[2],potent antimicrobial effects
same,LD100,[3],6 h
same,Latent Period,[3],3 h
same,−2.5 Log10,[3],3.5 hours
same,animals that died during the first 1-2 days,"[4]; 300 ppm gNO, group of 10 rats",Six
same,mortality,[4]; 400 ppm gNO,all of the animals died on the first day
same,mortality,[4]; 500 ppm gNO,all of the animals died on the first day
same,MetHb level,[4]; 500 ppm gNO,67 percents
same,population of planktonic MRSA strains,[5],A reduction in the population
same,LD100,[6],4 h
same,Latent Period,[6],3 h
same,−2.5 Log10,[6],3.3 hours
same,minor adverse events,"[7]; 160 ppm gNO 30 min, 5 times a day, 5 days, 10 healthy adults",Three minor adverse events were reported
same,significant adverse events,"[7]; 160 ppm gNO 30 min, 5 times a day, 5 days, 10 healthy adults, 250 administrations",no significant adverse events were observed
same,vital signs,"[7]; during and after gNO administration, 160 ppm",remained within normal limits
same,lowest observed SpO2,[7]; during or after 160 ppm gNO administration,93%
same,mean NO2 level during the treatments,"[7]; inspired gas at mouthpiece, 160 ppm gNO, 95% confidence level 2.17-2.47",2.32 ppm
same,LD100,[8],4 h
same,Latent Period,[8],2 h
same,−2.5 Log10,[8],2.8 hours
same,MetHb level,[9]; gNO 128 ppm for 3 hours,> 5%
same,MetHb level,[9]; gNO 512 ppm for 55 minutes,> 5%
same,LD100,[10],6 h
same,Latent Period,[10],4 h
same,−2.5 Log10,[10],5.3 hours
same,infectivity (plaque formation),[11],capable of reducing the infectivity
